In ChEMBL document CHEMBL6177994 (J Med Chem, 2025):
The source made the active and inactive calls. The rule behind the calls is not given here.

Tests used:
[1] = tested on: Protein cereblon/GTPase KRas (Homo sapiens), P01116+Q96SW2 [G12D]; experiment: PROTAC activity at CRBN/KRAS G12D mutant in human ASPC1 cells assessed as induction of KRAS G12D mutant degradation at 50 nM measured after 24 hrs by immunoblot analysis relative to control; type: cell-based
[2] = molecular target: Protein cereblon/GTPase KRas (Homo sapiens, UniProt P01116+Q96SW2, G12D); experiment: PROTAC activity at CRBN/KRAS G12D mutant in human ASPC1 cells assessed as induction of KRAS G12D mutant degradation measured after 24 hrs by immunoblot analysis; type: cell-based
Protein cereblon/GTPase KRas, sequence (P01116 whole entry G12D, stated change not applied): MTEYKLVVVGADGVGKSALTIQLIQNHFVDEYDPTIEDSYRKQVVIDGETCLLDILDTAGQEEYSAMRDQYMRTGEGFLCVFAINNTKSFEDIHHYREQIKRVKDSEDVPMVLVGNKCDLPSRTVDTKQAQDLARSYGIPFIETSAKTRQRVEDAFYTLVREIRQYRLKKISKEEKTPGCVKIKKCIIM
Protein cereblon/GTPase KRas, sequence (Q96SW2 whole entry, stated change not applied): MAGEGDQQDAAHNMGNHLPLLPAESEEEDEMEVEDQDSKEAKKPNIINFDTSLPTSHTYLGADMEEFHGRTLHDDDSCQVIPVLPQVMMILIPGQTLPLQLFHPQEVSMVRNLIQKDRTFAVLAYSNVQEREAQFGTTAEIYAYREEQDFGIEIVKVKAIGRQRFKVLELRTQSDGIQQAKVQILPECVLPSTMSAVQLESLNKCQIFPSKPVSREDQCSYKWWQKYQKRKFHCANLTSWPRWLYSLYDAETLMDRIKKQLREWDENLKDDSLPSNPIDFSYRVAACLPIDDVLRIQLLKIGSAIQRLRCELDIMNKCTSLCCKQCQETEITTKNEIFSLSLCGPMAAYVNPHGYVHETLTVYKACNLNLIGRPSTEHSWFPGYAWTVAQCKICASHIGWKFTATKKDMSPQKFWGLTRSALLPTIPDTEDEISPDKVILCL

PK-59 = experiment: PROTAC activity at CRBN/KRAS G12D mutant in human PK-59 cells assessed as induction of KRAS G12D mutant degradation 0.01 to 100 nM measured after 24 hrs by immunoblot analysis; type: cell-based; settings: dose 0.01-100 nM
AGS = experiment: PROTAC activity at CRBN/KRAS G12D mutant in human AGS cells assessed as induction of KRAS G12D mutant degradation 0.01 to 100 nM measured after 24 hrs by immunoblot analysis; type: cell-based; settings: dose 0.01-100 nM
[3] = Antiproliferative activity against human PK-59 cells harbouring KRAS G12D mutant assessed as inhibition of cell growth measured after 72 hrs by Cell titer glo method; type: functional, cell-based; settings: PK-59, 72 h
ASPC1 [4] = experiment: Potency index , ratio of MRTX1133 IC50 to test compound IC50 for antiproliferative activity against human ASPC1 cells assessed as inhibition of cell growth measured after 72 hrs by Cell titer glo method; type: functional
NCI-H358 = experiment: Antiproliferative activity against human NCI-H358 cells harbouring KRAS G12C mutant assessed as inhibition of cell growth measured after 72 hrs by Cell titer glo method; type: functional, cell-based
PSN1 = experiment: Antiproliferative activity against human PSN1 cells harbouring KRAS G12R mutant assessed as inhibition of cell growth measured after 72 hrs by Cell titer glo method; type: functional, cell-based
HPAC = experiment: Antiproliferative activity against human HPAC cells harbouring KRAS G12D mutant assessed as inhibition of cell growth measured after 72 hrs by Cell titer glo method; type: functional, cell-based
HCC1588 = experiment: Antiproliferative activity against human HCC1588 cells harbouring KRAS G12D mutant assessed as inhibition of cell growth measured after 72 hrs by Cell titer glo method; type: functional, cell-based
[5] = tested on: Protein cereblon/GTPase KRas (Homo sapiens), P01116+Q96SW2 [G12D]; experiment: PROTAC activity at CRBN/KRAS G12D mutant in human ASPC1 cells assessed as induction of KRAS G12D mutant degradation at 5 nM preincubated with MRTX1133 followed by compound addition and measured after 24 hrs by Western blot analysis; type: cell-based
[6] = Toxicity in female Balb/c nude mouse xenografted with human GP2d cells assessed as change in body weight at 1 to 10 mg/kg, iv QW measured after 28 days; type: organism-based; settings: in vivo, 672 h, dose 1-10 mg/kg, time 28 day
[7] = Toxicity in female Balb/c nude mouse xenografted with human GP2d cells assessed as drug tolerance at 1 to 10 mg/kg, iv QW measured after 28 days; type: organism-based; settings: in vivo, 672 h, dose 1-10 mg/kg, time 28 day
ASPC1 [8] = experiment: Antitumor activity against human ASPC1 cells harbouring KRAS G12D mutant xenografted in female Balb/c nude mouse model assessed as tumor regression at 1 to 20 mg/kg, iv QW administered weekly and measured after 28 days; type: functional, organism-based; settings: dose 1-20 mg/kg, time 28.0 day
SNU-407 = experiment: Antitumor activity against human SNU-407 cells harbouring KRAS G12D mutant xenografted in female Balb/c nude mouse model assessed as tumor regression at 1 to 10 mg/kg, iv QW administered weekly and measured after 28 days; type: functional, organism-based; settings: dose 1-10 mg/kg, time 28.0 day
[9] = Antitumor activity against human Panc 04.03 cells harbouring KRAS G12D mutant xenografted in female Balb/c nude mouse model assessed as tumor regression at 1 to 10 mg/kg, iv QW administered weekly and measured after 28 days relative to control; type: functional; settings: dose 1-10 mg/kg, time 28 day
A-427 = experiment: Antitumor activity against human A-427 cells harbouring KRAS G12D mutant xenografted in female Balb/c nude mouse model assessed as tumor regression at 1 to 10 mg/kg, iv QW administered weekly and measured after 28 days relative to control; type: functional; settings: dose 1-10 mg/kg, time 28 day
[10] = Drug concentration in male Balb/c nude mouse plasma xenografted with human PK-59 cells at 10 mg/kg, iv administered as single dose measured after 168 hrs by LC-MS/MS analysis; type: ADME, organism-based
[11] = tested on: Protein cereblon/GTPase KRas (Homo sapiens), P01116+Q96SW2 [G12D]; experiment: In vivo PROTAC activity at CRBN/KRAS G12D mutant in male Balb/c nude mouse xenografted with human PK-59 cells assessed as reduction in DUSP4 level in tumor at 10 mg/kg, iv measured up to 168 hrs relative to control; type: functional, organism-based; design: scale not given: the % may be the effect or the level left
[12] = tested on: Protein cereblon/GTPase KRas (Homo sapiens), P01116+Q96SW2 [G12D]; experiment: In vivo PROTAC activity at CRBN/KRAS G12D mutant in male Balb/c nude mouse xenografted with human GP2d cells assessed as inhibition of DUSP4 level at 10 mg/kg, iv measured after 7 days; type: functional, organism-based; settings: time 7.0 day
[13] = Stability in mouse plasma assessed as half life at 1 uM measured up to 120 mins by LC-MS/MS analysis; type: ADME, cell-free
[14] = Stability in rat plasma assessed as half life at 1 uM measured up to 120 mins by LC-MS/MS analysis; type: ADME, cell-free
[15] = Metabolic stability in dog liver microsomes assessed as half life at 1 uM preincubated for 3 mins with NADPH and measured up to 60 mins by LC-MS/MS analysis; type: ADME, Canis lupus familiaris, Microsome; settings: time < 63 min
[16] = Metabolic stability in human liver microsomes assessed as half life at 1 uM preincubated for 3 mins with NADPH and measured up to 60 mins by LC-MS/MS analysis; type: ADME, Microsome; settings: time < 63 min
[17] = Stability in human hepatocyte assessed as half life at 100 uM measured up to 120 mins by LC-MS/MS analysis; type: ADME, cell-based; settings: hepatocytes
[18] = Plasma protein binding in mouse at 2 uM by LC-MS/MS analysis; type: ADME, cell-free; settings: read-out: PPB
[19] = Plasma protein binding in monkey at 2 uM by LC-MS/MS analysis; type: ADME, cell-free, Macaca mulatta; settings: rhesus monkey, read-out: PPB
[20] = Clearance in male ICR mouse at 1 mg/kg, iv measured up to 24 hrs by LC-MS/MS analysis; type: ADME, organism-based; settings: in vivo
[21] = AUC (0 to t) in male Sprague-Dawley rat at 1 mg/kg, iv measured up to 24 hrs by LC-MS/MS analysis; type: ADME, organism-based; settings: in vivo
[22] = Half life in male Beagle dog at 1 mg/kg, iv measured up to 24 hrs by LC-MS/MS analysis; type: ADME, organism-based, Canis lupus familiaris; settings: in vivo
[23] = Volume of distribution at steady state in male Beagle dog at 1 mg/kg, iv measured up to 24 hrs by LC-MS/MS analysis; type: ADME, organism-based, Canis lupus familiaris; settings: in vivo, read-out: Vdss
[24] = Clearance in male Beagle dog at 1 mg/kg, iv measured up to 24 hrs by LC-MS/MS analysis; type: ADME, organism-based, Canis lupus familiaris; settings: in vivo
[25] = Volume of distribution at steady state in male cynomolgus monkey at 1 mg/kg, iv measured up to 24 hrs by LC-MS/MS analysis; type: ADME, organism-based, Macaca fascicularis; settings: in vivo, read-out: Vdss
[26] = Half life in male ICR mouse plasma at 10 mg/kg, iv measured after 72 hrs by LC-MS/MS analysis; type: ADME, organism-based

Protein cereblon/GTPase KRas (Homo sapiens), P01116+Q96SW2 [G12D], sequence (P01116 whole entry G12D): as the sequence (P01116 whole entry G12D, stated change not applied) above
Protein cereblon/GTPase KRas (Homo sapiens), P01116+Q96SW2 [G12D], sequence (Q96SW2 whole entry partner): as the sequence (Q96SW2 whole entry, stated change not applied) above

## C#Cc1c(F)ccc2cc(O)cc(-c3ncc4c(N5CC6CCC(C5)N6)nc(OCC5(CN6CCC7(CC6)CC(N6CCC(c8cc9c(cc8F)c(N8CCC(=O)NC8=O)nn9C)CC6)C7)CC5)nc4c3F)c12
[1]
  Activity: 74%
[2]
  DC50: 0.6 nM
PK-59
  Activity: Active
AGS
  Activity: Active
[3]
  IC50: 2.8 nM
ASPC1 [4]
  Ratio IC50: >10
NCI-H358
  Activity: Weak_effect; Compound Showed Weaker Potency In Antiproliferative Activity Compared To Mrtx1133
PSN1
  Activity: Weak_effect; Compound Showed Weaker Potency In Antiproliferative Activity Compared To Mrtx1133
HPAC
  Activity: Active; Compound Showed Stronger Antiproliferative Activity Compared To Mrtx1133
HCC1588
  Activity: Active; Compound Showed Stronger Antiproliferative Activity Compared To Mrtx1133
[5]
  Activity: Active
[6]
  Activity: Non-toxic
[7]
  Activity: Non-toxic
ASPC1 [8]
  Activity: Weak_effect
SNU-407
  Activity: Weak_effect
[9]
  Activity: >30%
A-427
  Activity: >30%
[10]
  concentration at 168 h: 5.3 ng/mL
[11]
  Activity: 6.1%
[12]
  Activity: Active
[13]
  half-life at 1 µM: 8.88 h
[14]
  half-life at 1 µM: 12.8 h
[15]
  half-life at 1 µM: 7.22 h
[16]
  half-life at 1 µM: 2.57 h
[17]
  half-life at 100 µM: 7.27 h
[18]
  fraction unbound at 2 µM: < 0.05
[19]
  fraction unbound at 2 µM: < 0.05
[20]
  clearance: 39 mL/min/kg
[21]
  AUC(0-t) at 24 h: 0.531 µM·h
[22]
  half-life: 15.6 h
[23]
  Vd: 16 L/kg
[24]
  clearance: 33 mL/min/kg
[25]
  Vd: 12.7 L/kg
[26]
  half-life: 15.1 h
